Experimental data: US20170303540A1, “NOVEL TRIAZOLE DERIVATIVES” (BAYER CROPSCIENCE AKTIENGESELLSCHAFT, priority 2014, published 2017)

Assay: Log P by HPLC on reversed phase columns (EEC directive 79/831 Annex V.A8)
Assay type: physicochemical
Settings: method [a]: HPLC/LC-MS at pH 2.7, 0.1% formic acid in water / acetonitrile gradient
Description: Measurement of Log P values for Table 2 was performed according to EEC directive 79/831 Annex V.A8 by HPLC (High Performance Liquid Chromatography) on reversed phase columns with the following methods: ^[a]Measurement of LC-MS was done at pH 2.7 with 0.1% formic acid in water and with acetonitrile (contains 0.1% formic acid) as eluent with a linear gradient from 10% acetonitrile to 95% acetonitrile. […] Lambda-max-values were determined using UV-spectra from 200 nm to 400 nm and the peak values of the chromatographic signals.

LogP	SMILES
2.75^[a]	CC(C)(Cc1ccc(Cl)cc1)C(O)(Cc1ccnnc1Cl)Cn1cncn1 (stereo not drawn) [Example I-368]
1.31^[a]	CC(C)(CF)C(O)(Cc1ccnnc1Cl)Cn1cncn1 (stereo not drawn) [Example I-593]
1.70^[a]	CC(C)(CCl)C(O)(Cc1ccnnc1Cl)Cn1cncn1 (stereo not drawn) [Example I-771]

The next lines start with the molecule.

SMILES	LogP
CCC1(C(O)(Cc2cc(Cl)nnc2Cl)Cn2cncn2)CC1 (stereo not drawn) [Example I-441]	2.18^[a]
OC(Cc1ccc(Cl)cc1Cl)(Cc1ccnnc1Cl)Cn1cncn1 (stereo not drawn) [Example I-444]	2.34^[a]
OC(Cc1ccc(Cl)cc1Cl)(Cc1cc(Cl)nnc1Cl)Cn1cncn1 (stereo not drawn) [Example I-480]	2.96^[a]
CC(CF)(CF)C(O)(Cc1ccnnc1Cl)Cn1cncn1 (stereo not drawn) [Example I-530]	1.28^[a]
C=CC(C)(C)C(O)(Cc1ccnnc1Cl)Cn1cncn1 (stereo not drawn) [Example I-592]	1.60^[a]
OC(Cc1cc(Cl)nnc1Cl)(Cn1cncn1)C1CC1 (stereo not drawn) [Example I-710]	1.49^[a]
CCC1(C(O)(Cc2ccnnc2Cl)Cn2cncn2)CC1 (stereo not drawn) [Example I-745]	1.59^[a]
OC(Cc1ccnnc1Cl)(Cn1cncn1)C1CC1 (stereo not drawn) [Example I-799]	0.84^[a]

Same assay, conditions: reversed phase HPLC columns; method [a]: HPLC/LC-MS at pH 2.7, 0.1% formic acid in water / acetonitrile gradient

SMILES	chromatographic logP
CC(C)(C)C(O)(Cc1ccnnc1Cl)Cn1cncn1 (stereo not drawn) [Example I-713, 1-(3-chloropyridazin-4-yl)-3,3-dimethyl-2-(1H-1,2,4-triazol-1-ylmethyl)butan-2-ol]	1.48
